The text below walks through data of PubChem BioAssay AID284 (DTP/NCI, 2004).

For this experiment, the system named is BDF1 mice, L1210/MTX-resistant leukemia ip, survival T/C. In words: NCI In Vivo Anticancer Drug Screen. Data for tumor model L1210 Leukemia resistant to Methotrexate; NSC 740 (intraperitoneal) in B6D2F1 (BDF1) mice. Particulars: endpoint: mean survival time, higher = longer survival. As to the method: The antitumor activity of compounds was measured in mice bearing transplantable tumors. Survival or tumor size were measured and the results are expressed as the measurement made in the treated group (T) divided by the measurement made in the vehicle treated control group (C). The tumor model used in this assay is L1210 Leukemia resistant to Methotrexate; NSC 740 (intraperitoneal) in B6D2F1 (BDF1) mice

The mark [1] stands for this setting: dose: 25.0 mg/kg/injection, schedule: Q01DX010 (sc), vehicle: steriod suspending solution.
The mark [2] stands for this setting: dose: 0.75 mg/kg/injection, schedule: Q01DX Z (ip), vehicle: carboxymethylcellulose (CMC).

Values joined by “and” are separate entries in the source; they are usually repeats but may differ in a detail not shown here. Equal values may be shown once. Toxic doses and inconclusive results are not listed. Starred links: 1 amine or outer side, 2 acyl side, 3 side chain; linkers in the order of their positions; H or OH if unused. Positions of bridges follow the written chain, without caps; N, C: chain ends. Non-standard residues stand in square brackets, D forms with d. Residues, ends and D or L forms follow the SMILES beside them. Chains are numbered I, II in the order given. Actinocin(9to1) = Cc1c2oc3c(C)ccc(C(=O)[*:1])c3nc-2c(C(=O)[*:2])c(N)c1=O; aThr = C[C@H](O)[C@H](N)C(=O)O; NMeV = CN[C@H](C(=O)O)C(C)C; Sar = CNCC(=O)O

In the case of `Cc1c2oc3c(C)ccc(C(=O)N[C@@H]4C(=O)N[C@H](C(C)C)C(=O)N5CCC[C@H]5C(=O)N(C)CC(=O)N(C)[C@@H](C(C)C)C(=O)O[C@H]4C)c3nc-2c(C(=O)N[C@@H]2C(=O)N[C@H](C(C)C)C(=O)N3CCC[C@H]3C(=O)N(C)CC(=O)N(C)[C@@H](C(C)C)C(=O)O[C@H]2C)c(N)c1=O` (I: [aThr][dV]P[Sar][NMeV] / II: [aThr][dV]P[Sar][NMeV]; ester I:1-I:C, II:1-II:C; linker I:N-II:N via Actinocin(9to1)), the T/C by setting is: (dose: 12.0 micrograms/kg/injection, schedule: Q01DX Z (ip), vehicle: saline) 157 % of control; (dose: 12.5 micrograms/kg/injection, schedule: Q01DX Z (ip), vehicle: saline) 103 % of control; (dose: 32.0 micrograms/kg/injection, schedule: Q01DX Z (ip), vehicle: saline) 92 % of control and 104 % of control; (dose: 50.0 micrograms/kg/injection, schedule: Q01DX Z (ip), vehicle: saline) 114 % of control and 117 % of control; (dose: 63.0 micrograms/kg/injection, schedule: Q01DX Z (ip), vehicle: saline) 98 % of control and 104 % of control; (dose: 125.0 micrograms/kg/injection, schedule: Q01DX Z (ip), vehicle: saline) 117 % of control and 101 % of control.

Consider `CC(=O)O[C@]1(C(C)=O)CC[C@H]2[C@@H]3C[C@H](C)C4=CC(=O)C=C[C@]4(C)[C@@]3(F)[C@@H](O)C[C@@]21C`, for which the T/C (dose: 0.62 mg/kg/injection, schedule: Q01DX Z (sc), vehicle: steriod suspending solution) is 96 % of control; the T/C (dose: 1.25 mg/kg/injection, schedule: Q01DX Z (sc), vehicle: steriod suspending solution) is 97 % of control; the T/C (dose: 2.5 mg/kg/injection, schedule: Q01DX Z (sc), vehicle: steriod suspending solution) was 100 % of control; the T/C (dose: 5.0 mg/kg/injection, schedule: Q01DX Z (sc), vehicle: steriod suspending solution) was 101 % of control; the T/C (dose: 12.5 mg/kg/injection, schedule: Q01DX010 (sc), vehicle: steriod suspending solution) was 101 % of control; the T/C under setting [1] was 100 % of control. For the same compound, the T/C is, setting by setting: (dose: 37.5 mg/kg/injection, schedule: Q01DX Z (sc), vehicle: steriod suspending solution) 150 % of control; (dose: 50.0 mg/kg/injection, schedule: Q01DX010 (sc), vehicle: steriod suspending solution) 88 % of control; (dose: 100.0 mg/kg/injection, schedule: Q01DX010 (sc), vehicle: steriod suspending solution) 88 % of control.

Consider `Oc1cc(CN(CCCl)CCCl)c(O)cc1CN(CCCl)CCCl`, for which the T/C is 96 % of control (dose: 0.25 mg/kg/injection, schedule: Q01DX Z (ip), vehicle: carboxymethylcellulose (CMC)); 110 % of control (dose: 0.37 mg/kg/injection, schedule: Q01DX Z (ip), vehicle: carboxymethylcellulose (CMC)); 88 % of control (dose: 0.5 mg/kg/injection, schedule: Q01DX Z (ip), vehicle: carboxymethylcellulose (CMC)); 97 % of control under setting [2]; 86 % of control (dose: 1.0 mg/kg/injection, schedule: Q01DX Z (ip), vehicle: carboxymethylcellulose (CMC)); 88 % of control (dose: 2.0 mg/kg/injection, schedule: Q01DX Z (ip), vehicle: carboxymethylcellulose (CMC)).

For the compound `Nc1nc(SCc2ccccc2)c2[nH]cnc2n1`, the T/C runs as follows: (dose: 6.25 mg/kg/injection, schedule: Q01DX Z (ip), vehicle: carboxymethylcellulose (CMC)) 121 % of control; (dose: 8.0 mg/kg/injection, schedule: Q01DX010 (ip), vehicle: saline) 105 % of control; (dose: 12.5 mg/kg/injection, schedule: Q01DX Z (ip), vehicle: carboxymethylcellulose (CMC)) 114 % of control; (dose: 16.0 mg/kg/injection, schedule: Q01DX010 (ip), vehicle: saline) 120 % of control; (dose: 25.0 mg/kg/injection, schedule: Q01DX Z (ip), vehicle: carboxymethylcellulose (CMC)) 107 % of control; (dose: 50.0 mg/kg/injection, schedule: Q01DX Z (ip), vehicle: carboxymethylcellulose (CMC)) 105 % of control. Besides, the T/C is 95 % of control (dose: 62.5 mg/kg/injection, schedule: Q01DX Z (ip), vehicle: carboxymethylcellulose (CMC)) and 96 % of control (dose: 64.0 mg/kg/injection, schedule: Q01DX010 (ip), vehicle: saline).

Turning to `Nc1nc(=S)c2[nH]cnc2[nH]1`, the T/C under setting [2] was 97 % of control; the T/C (dose: 1.25 mg/kg/injection, schedule: Q01DX010 (ip), vehicle: saline) is 99 % of control and 106 % of control; the T/C (dose: 1.5 mg/kg/injection, schedule: Q01DX Z (ip), vehicle: carboxymethylcellulose (CMC)) was 88 % of control; the T/C (dose: 2.5 mg/kg/injection, schedule: Q01DX010 (ip), vehicle: saline) is 90 % of control; the T/C (dose: 2.5 mg/kg/injection, schedule: Q01DX Z (ip), vehicle: carboxymethylcellulose (CMC)) is 102 % of control; the T/C (dose: 5.0 mg/kg/injection, schedule: Q01DX010 (ip), vehicle: saline) is 92 % of control. Besides, the T/C is 107 % of control (dose: 5.0 mg/kg/injection, schedule: Q01DX Z (ip), vehicle: carboxymethylcellulose (CMC)); 108 % of control (dose: 7.5 mg/kg/injection, schedule: Q01DX Z (ip), vehicle: carboxymethylcellulose (CMC)); 98 % of control (dose: 10.0 mg/kg/injection, schedule: Q01DX Z (ip), vehicle: carboxymethylcellulose (CMC)); 88 % of control (dose: 15.0 mg/kg/injection, schedule: Q01DX Z (ip), vehicle: carboxymethylcellulose (CMC)).

Take `Clc1ccc(C(c2ccccc2Cl)C(Cl)Cl)cc1` (stereo not given): the T/C was 105 % of control (dose: 62.5 mg/kg/injection, schedule: Q01DX Z (sc), vehicle: steriod suspending solution); 99 % of control (dose: 125.0 mg/kg/injection, schedule: Q01DX Z (sc), vehicle: steriod suspending solution); 107 % of control (dose: 250.0 mg/kg/injection, schedule: Q01DX Z (sc), vehicle: steriod suspending solution); 110 % of control (dose: 500.0 mg/kg/injection, schedule: Q01DX Z (sc), vehicle: steriod suspending solution).

For the compound `C[C@]12C=CC(=O)C=C1CC[C@@H]1[C@@H]2C(=O)C[C@@]2(C)[C@H]1CC[C@]2(O)C(=O)CO`, the T/C under setting [1] was 90 % of control.

Take `O=P1(N(CCCl)CCCl)NCCCO1` (stereo not given): the T/C by setting is: (dose: 11.3 mg/kg/injection, schedule: Q01DX010 (ip), vehicle: saline) 100 % of control; (dose: 12.5 mg/kg/injection, schedule: Q01DX Z (ip), vehicle: saline) 98 % of control and 103 % of control; (dose: 22.5 mg/kg/injection, schedule: Q01DX Z (ip), vehicle: saline) 174 % of control; (dose: 45.0 mg/kg/injection, schedule: Q01DX010 (ip), vehicle: saline) 152 % of control; (dose: 90.0 mg/kg/injection, schedule: Q01DX010 (ip), vehicle: saline) 87 % of control; (dose: 100.0 mg/kg/injection, schedule: Q01DX Z (ip), vehicle: saline) 88 % of control and 109 % of control. Further, where the note is “dose: 200.0 mg/kg/injection, schedule: Q01DX Z (ip), vehicle: saline”, the T/C was 88 % of control and 103 % of control.

Regarding `O=C(Nc1ccc(C2=NCCCN2)cc1)c1ccc(NC(=O)c2ccc(C3=NCCCN3)cc2)cc1`, the T/C is, setting by setting: (dose: 2.0 mg/kg/injection, schedule: Q01DX010 (ip), vehicle: other) 168 % of control; (dose: 4.0 mg/kg/injection, schedule: Q01DX010 (ip), vehicle: other) 218 % of control and 257 % of control; (dose: 8.0 mg/kg/injection, schedule: Q01DX010 (ip), vehicle: other) 181 % of control and 221 % of control.

With `O=c1cn[nH]c(=O)[nH]1`, the T/C by setting is: (dose: 125.0 mg/kg/injection, schedule: Q01DX010 (ip), vehicle: saline) 93 % of control; (dose: 250.0 mg/kg/injection, schedule: Q01DX010 (ip), vehicle: saline) 91 % of control and 97 % of control; (dose: 500.0 mg/kg/injection, schedule: Q01DX010 (ip), vehicle: saline) 86 % of control and 90 % of control.

As for `CN(C)c1ccc(/C=C\c2ccnc3ccccc23)cc1`, the T/C by setting is: (dose: 1.5 mg/kg/injection, schedule: Q01DX010 (ip), vehicle: saline) 97 % of control; (dose: 3.0 mg/kg/injection, schedule: Q01DX010 (ip), vehicle: saline) 103 % of control; (dose: 6.0 mg/kg/injection, schedule: Q01DX010 (ip), vehicle: saline) 99 % of control.

For the compound `CS(=O)(=O)OCCCl`, the T/C (dose: 7.5 mg/kg/injection, schedule: Q01DX Z (ip), vehicle: saline) was 107 % of control; the T/C (dose: 10.0 mg/kg/injection, schedule: Q01DX Z (ip), vehicle: saline) is 111 % of control; the T/C (dose: 15.0 mg/kg/injection, schedule: Q01DX Z (ip), vehicle: saline) is 109 % of control; the T/C (dose: 20.0 mg/kg/injection, schedule: Q01DX Z (ip), vehicle: saline) is 111 % of control; the T/C (dose: 50.0 mg/kg/injection, schedule: Q01DX Z (ip), vehicle: saline) was 86 % of control.
